Here are results for eleven compounds from ChEMBL document CHEMBL1152546, “N-[2-chloro-9H-purin-6-yl]-N-cyclopropylglycylamino acids and derivatives: synthesis, evaluation as a class of novel analgesics, and 3D QSAR analysis” (2009).

Experiment [1] has as its system Mus musculus. Put plainly: Analgesic activity in ICR mouse assessed as pain threshold variation at 25 umol/kg, po administered as single dose measured after 150 mins by tail flick test relative to control. Type of experiment: functional. (Thermal pain tests record how soon the animal reacts.)
Experiment [2] has as its system Mus musculus. In words: Analgesic activity in ICR mouse assessed as pain threshold variation at 6.25 umol/kg, po administered as single dose measured after 60 mins by tail flick test relative to control. It counts as functional.
The subject of experiment [3] is Mus musculus. In words: Analgesic activity in ICR mouse assessed as pain threshold variation at 12.5 umol/kg, po administered as single dose measured after 30 mins by tail flick test relative to control. Type of experiment: functional.
Experiment [4] has as its system Mus musculus. In words: Analgesic activity in ICR mouse assessed as pain threshold variation at 12.5 umol/kg, po administered as single dose measured after 120 mins by tail flick test relative to control. Type of experiment: functional.
For experiment [5], the system named is Mus musculus. In words: Analgesic activity in ICR mouse assessed as pain threshold variation at 6.25 umol/kg, po administered as single dose measured after 30 mins by tail flick test relative to control. It counts as functional.
For experiment [6], the system named is Mus musculus. In words: Analgesic activity in ICR mouse assessed as pain threshold variation at 25 umol/kg, po administered as single dose measured after 60 mins by tail flick test relative to control. Type of experiment: functional.
The test system of experiment [7] is Mus musculus. Put plainly: Analgesic activity in po dosed ICR mouse assessed as pain threshold variation administered as single dose measured after 30 to 180 mins by tail flick test. It counts as functional, organism-based.
Experiment [8] deals with Mus musculus. In words: Analgesic activity in ICR mouse assessed as pain threshold variation at 25 umol/kg, po administered as single dose measured after 90 mins by tail flick test relative to control. Type of experiment: functional.
Experiment [9] has as its system Mus musculus. Put plainly: Analgesic activity in ICR mouse assessed as pain threshold variation at 12.5 umol/kg, po administered as single dose measured after 90 mins by tail flick test relative to control. Type of experiment: functional.
Experiment [10] has as its system Mus musculus. Put plainly: Analgesic activity in ICR mouse assessed as pain threshold variation at 6.25 umol/kg, po administered as single dose measured after 150 mins by tail flick test relative to control. It counts as functional.
Experiment [11] relates to Mus musculus. In words: Analgesic activity in ICR mouse assessed as pain threshold variation at 6.25 umol/kg, po administered as single dose measured after 120 mins by tail flick test relative to control. Type of experiment: functional.
In experiment [12] the test system is Mus musculus. Put plainly: Analgesic activity in ICR mouse assessed as pain threshold variation at 12.5 umol/kg, po administered as single dose measured after 60 mins by tail flick test relative to control. Type of experiment: functional.
Experiment [13] concerns Mus musculus. Put plainly: Analgesic activity in ICR mouse assessed as pain threshold variation at 12.5 umol/kg, po administered as single dose measured after 180 mins by tail flick test relative to control. It counts as functional.
Experiment [14] concerns Mus musculus. Put plainly: Analgesic activity in ICR mouse assessed as pain threshold variation at 12.5 umol/kg, po administered as single dose measured after 150 mins by tail flick test relative to control. Type of experiment: functional.
The test system of experiment [15] is Mus musculus. Put plainly: Analgesic activity in ICR mouse assessed as pain threshold variation at 25 umol/kg, po administered as single dose measured after 30 mins by tail flick test relative to control. Type of experiment: functional.
In experiment [16] the test system is Mus musculus. In words: Analgesic activity in ICR mouse assessed as pain threshold variation at 25 umol/kg, po administered as single dose measured after 120 mins by tail flick test relative to control. It counts as functional.
The test system of experiment [17] is Mus musculus. Put plainly: Analgesic activity in ICR mouse assessed as pain threshold variation at 25 umol/kg, po administered as single dose measured after 180 mins by tail flick test relative to control. It counts as functional.
The test system of experiment [18] is Mus musculus. Put plainly: Analgesic activity in ICR mouse assessed as pain threshold variation at 6.25 umol/kg, po administered as single dose measured after 90 mins by tail flick test relative to control. It counts as functional.
Experiment [19] concerns Mus musculus. In words: Analgesic activity in ICR mouse assessed as pain threshold variation at 6.25 umol/kg, po administered as single dose measured after 180 mins by tail flick test relative to control. Type of experiment: functional.

Molecules are shown by their SMILES.

With `N=C(N)NCCC[C@H](NC(=O)CN(c1nc(Cl)nc2[nH]cnc12)C1CC1)C(=O)O`, the Activity was found to be 7.19% in the experiment on Mus musculus [1]; 17.53% with Mus musculus [2]; 22.24% with Mus musculus [3]; 10.28% with Mus musculus [4]; 8.9% in the experiment on Mus musculus [5]; 50.97% with Mus musculus [6]. In addition, the Activity entry in the experiment with Mus musculus [7] is “Dose-dependent effect”; with Mus musculus [8] it was 27.59%; in the experiment with Mus musculus [9] it was 18.43%; in the experiment with Mus musculus [10], 5.09%; in the experiment on Mus musculus [11], 9.52%; in the experiment with Mus musculus [12], 39.76%. Further, the Activity is 5.24% with Mus musculus [13]; 6.93% in the experiment on Mus musculus [14]; 45.41% in the experiment with Mus musculus [15]; 17.03% with Mus musculus [16]; 5.19% in the experiment on Mus musculus [17]; 12.08% in the experiment on Mus musculus [18]. For the same compound, the Activity with Mus musculus [19] is reported as 2.15%.
Turning to `CC(C)C[C@H](NC(=O)CN(c1nc(Cl)nc2[nH]cnc12)C1CC1)C(=O)O`, the Activity in the experiment with Mus musculus [1] is reported as 9.13%; in the experiment on Mus musculus [2] it was 10.66%; in the experiment with Mus musculus [3] it was 15.99%; in the experiment with Mus musculus [4], 13.32%; in the experiment on Mus musculus [5], 8.01%; in the experiment with Mus musculus [6], 36.37%. Further, the Activity entry was “Dose-dependent effect” with Mus musculus [7]; 26.97% with Mus musculus [8]; 20.93% in the experiment with Mus musculus [9]; 5.56% in the experiment with Mus musculus [10]; 9.44% in the experiment with Mus musculus [11]; 17.3% in the experiment with Mus musculus [12]. The Activity with Mus musculus [13] came to 5.5%; with Mus musculus [14], 7.77%; with Mus musculus [15] it was 23.4%; in the experiment with Mus musculus [16] it was 18.74%; in the experiment on Mus musculus [17] it was 3.63%; with Mus musculus [18] it was 16.17%. In addition, the Activity with Mus musculus [19] came out at 2.8%.
As to `CC(C)[C@H](NC(=O)CN(c1nc(Cl)nc2[nH]cnc12)C1CC1)C(=O)OCc1ccccc1`, the Activity with Mus musculus [1] is 17.91%; in the experiment on Mus musculus [2], 13.94%; in the experiment with Mus musculus [3] it was 15.95%; in the experiment on Mus musculus [4], 14.96%; in the experiment on Mus musculus [5], 7.69%; in the experiment with Mus musculus [6], 55.49%. In addition, the Activity result is “Dose-dependent effect” with Mus musculus [7]; 51.32% with Mus musculus [8]; 23.59% in the experiment with Mus musculus [9]; 3.07% with Mus musculus [10]; 9.26% in the experiment with Mus musculus [11]; 26.47% in the experiment with Mus musculus [12]. For the same compound, the Activity came out at 4.58% in the experiment with Mus musculus [13]; 5.43% with Mus musculus [14]; 33.43% in the experiment with Mus musculus [15]; 27.33% in the experiment with Mus musculus [16]; 12.93% with Mus musculus [17]; 11.83% in the experiment on Mus musculus [18]. In addition, the Activity in the experiment on Mus musculus [19] amounted to 3.22%.
Consider `O=C(CN(c1nc(Cl)nc2[nH]cnc12)C1CC1)NCC(=O)OCc1ccccc1`, for which the Activity came out at 17.99% in the experiment with Mus musculus [1]; 13.19% in the experiment on Mus musculus [2]; 11.25% in the experiment on Mus musculus [3]; 14.62% with Mus musculus [4]; 5.73% with Mus musculus [5]; 41.91% in the experiment on Mus musculus [6]. The Activity entry is “Dose-dependent effect” with Mus musculus [7]; 27.18% in the experiment with Mus musculus [8]; 19% in the experiment with Mus musculus [9]; 3.47% in the experiment with Mus musculus [10]; 8.04% in the experiment on Mus musculus [11]; 23.74% in the experiment with Mus musculus [12]. The Activity came out at 5.45% with Mus musculus [13]; 6.2% in the experiment with Mus musculus [14]; 18.65% in the experiment on Mus musculus [15]; 21.69% in the experiment on Mus musculus [16]; 8.31% with Mus musculus [17]; 9.93% with Mus musculus [18]. The Activity with Mus musculus [19] is listed as 2.64%.
Consider `NCCCC[C@H](NC(=O)CN(c1nc(Cl)nc2[nH]cnc12)C1CC1)C(=O)O`, for which the Activity was 11.64% with Mus musculus [1]; 16.6% in the experiment with Mus musculus [2]; 16.33% with Mus musculus [3]; 9.79% with Mus musculus [4]; 8.04% with Mus musculus [5]; 53.76% with Mus musculus [6]. Besides, the Activity result is “Dose-dependent effect” in the experiment with Mus musculus [7]; 28.84% in the experiment with Mus musculus [8]; 22.04% in the experiment with Mus musculus [9]; 2.82% with Mus musculus [10]; 7.05% in the experiment with Mus musculus [11]; 31.34% in the experiment on Mus musculus [12]. Besides, the Activity in the experiment on Mus musculus [13] was determined as 2.99%; in the experiment on Mus musculus [14], 7.39%; with Mus musculus [15] it was 31.18%; in the experiment with Mus musculus [16], 16.37%; in the experiment on Mus musculus [17], 6.07%; in the experiment with Mus musculus [18], 14.48%. Further, the Activity in the experiment with Mus musculus [19] is 2.61%.
As for `O=C(CN(c1nc(Cl)nc2[nH]cnc12)C1CC1)N[C@@H](CC(=O)OCc1ccccc1)C(=O)OCc1ccccc1`, the Activity with Mus musculus [1] turned out to be 6.68%; with Mus musculus [6] it was 22.4%; in the experiment on Mus musculus [8], 15.58%; with Mus musculus [15], 34.7%; in the experiment with Mus musculus [16] it was 12.14%; with Mus musculus [17], 2.87%.
Take `O=C(O)CC[C@H](NC(=O)CN(c1nc(Cl)nc2[nH]cnc12)C1CC1)C(=O)O`: the Activity is recorded as 29.46% with Mus musculus [1]; 33.25% in the experiment with Mus musculus [6]; 44.7% in the experiment on Mus musculus [8]; 26.81% in the experiment on Mus musculus [15]; 30.08% with Mus musculus [16]; 10.05% with Mus musculus [17].
As for `O=C(OCc1ccccc1)[C@@H]1CCCN1C(=O)CN(c1nc(Cl)nc2[nH]cnc12)C1CC1`, the Activity in the experiment on Mus musculus [1] is recorded as 31.09%; with Mus musculus [6], 34.37%; in the experiment with Mus musculus [8], 43.28%; with Mus musculus [15], 33.18%; with Mus musculus [16], 38.35%; in the experiment on Mus musculus [17], 17.63%.
Turning to `NCCCC[C@H](NC(=O)CN(c1nc(Cl)nc2[nH]cnc12)C1CC1)C(=O)OCc1ccccc1`, the Activity worked out at 9.88% in the experiment with Mus musculus [1]; 14.83% with Mus musculus [2]; 18.5% in the experiment with Mus musculus [3]; 11.35% with Mus musculus [4]; 9.19% with Mus musculus [5]; 41.16% in the experiment with Mus musculus [6]. Also, the Activity entry is “Dose-dependent effect” with Mus musculus [7]; 35.27% in the experiment with Mus musculus [8]; 25.42% in the experiment on Mus musculus [9]; 4.87% in the experiment with Mus musculus [10]; 9.01% in the experiment on Mus musculus [11]; 29.98% with Mus musculus [12]. The Activity came to 3.72% in the experiment with Mus musculus [13]; 9.91% with Mus musculus [14]; 26.13% with Mus musculus [15]; 16.79% in the experiment on Mus musculus [16]; 2.24% in the experiment on Mus musculus [17]; 11.3% in the experiment with Mus musculus [18]. In the experiment with Mus musculus [19], the Activity was found to be 3.95%.
In the case of `O=C(CN(c1ncnc2c1ncn2C1CCCCO1)C1CC1)N[C@@H](Cc1cnc[nH]1)C(=O)OCc1ccccc1` (some centres undefined), the Activity with Mus musculus [1] was 5.31%; in the experiment with Mus musculus [6], 36.43%; in the experiment on Mus musculus [8], 14.45%; in the experiment on Mus musculus [15], 24.98%; in the experiment with Mus musculus [16], 10.16%; in the experiment on Mus musculus [17] it was 4.38%.
For the compound `CC(C)[C@H](NC(=O)CN(c1nc(Cl)nc2[nH]cnc12)C1CC1)C(=O)O`, the Activity was 7.86% with Mus musculus [1]; 38.79% in the experiment on Mus musculus [6]; 30.28% in the experiment on Mus musculus [8]; 31.15% in the experiment with Mus musculus [15]; 17.06% in the experiment with Mus musculus [16]; 3.04% in the experiment with Mus musculus [17].
